Test system: human polymorphonuclear phagocytes
Experiment: in vitro PMN model: ROS formation triggered by fMLP, dihydrorhodamine fluorescence by flow cytometry
Format: cell-based
Description: L-ergothioneine meeting the purity specifications defined herein was tested using in an in vitro PMN model using cells from a healthy blood donor. Minute samples of blood were exposed to L-ergothioneine (0.01-5 g/L) for 24 hours. The cells were then loaded with the dihydrorhodamine dye, which turns fluorescent upon exposure to ROS. Formation of ROS was triggered by addition of the bacterial peptide f-Met-Leu-Phe (fMLP). The samples were treated with a lysing buffer to eliminate most of the red blood cells in the samples, after which the samples were fixed in formalin. The fluorescence intensity of the PMN cells was evaluated by flow cytometry. The low fluorescence intensity of untreated control cells served as a baseline and PMN cells treated with fMLP alone served as a positive control.
The results are depicted in FIG. 1. […] The percent inhibition is shown as the average±standard deviation of sextuplicate data points for each dose of L-ergothioneine.

**Q.** How did the “ROS formation in response to the bacterial peptide fMLP” value (PMN cells from a healthy blood donor, L-ergothioneine 0.01-5 g/L for 24 hours, compared to fMLP alone) turn out when `C[N+](C)(C)[C@@H](Cc1c[nH]c(=S)[nH]1)C(=O)[O-]` [L-ergothioneine, (2S)-3-(2-thioxo-2,3-dihydro-1H-imidazol-4-yl)-2-(trimethylammonio)-propanoate] was run?
**A.** The value was “enhanced ROS formation”.

**Q.** What about the “increase in ROS formation compared to the control cultures” value (across the 0.6 g/L dose reported in human tissue, 24 hours, fMLP-triggered) of the same molecule?
**A.** Its value is “remained statistically significant”.

From patent publication US20240285585A1, “L-ERGOTHIONEINE AND USES THEREOF” (NANJING NUTRABUILDING BIO-TECH CO., LTD., priority 2021, published 2024)
